According to patent publication US20230210096A1, “NON-HUMAN ANIMAL MODELS FOR AGING AND/OR NEURODEGENERATION” (University of Pittsburgh - Of the Commonwealth System of …, priority 2020, published 2023):

How the values were obtained:
[1] = system: AANAT-KO primary cerebrocortical neurons (PCNs); experiment: qPCR of cytosolic mtDNA in PCNs; assay type: cell-based, mouse; conditions: AANAT-KO PCN, DIV21, melatonin 5 µM
Description: (§1) N2a cells were obtained from ATCC and grown in DMEM/F12 medium with 10% FBS. AANAT-KO N2a cells were generated as described elsewhere (see, e.g., Suofu et al., PNAS 114:E7997-E8006 (2017)). N2a cells were differentiated by exposing them to 10 µM retinoic acid (RA) with 2% fetal bovine serum (FBS) for 8 days. Every alternate day, the culture medium of differentiating N2a cells was replaced with fresh medium containing 10 µM of RA. N2a cells were treated with 5 µM melatonin during differentiation to evaluate the effect of melatonin in WT and AANAT-KO N2a differentiated neurons. Fresh melatonin was added with RA every alternate day for 8 days. All experiments were performed in 8-day-differentiated neurons with or without melatonin. STHdh^Q7/Q7 (Q7) STHdh^Q111/Q111 (Q111) cells were grown in MEM culture medium with 10% FBS. Differentiation of Q7 and Q111 cells was induced by exposing cells to 10 ng/mL α-FGF, 250 µM 3-isobutyl-1-methylxanthine (IBMX), 200 nM phorbol 12-myristate 13-acetate (TPA), 50 µM forskolin and 10 µM dopamine for 2 days. […]
(§2) For measurement of mtDNA in cytosol in cells, cell fractions were prepared using Cell Fractionation Kit (Abeam). […] The copy number of mtDNA encoding cytochrome c oxidase 1 (mt-CO1), mt-Dloop1 and mt-Dloop3 was measured by quantitative real-time PCR with same volume of DNA solution. […]

[2] = system: AANAT-KO differentiated N2a cells; experiment: qPCR of cytosolic mtDNA in differentiated N2a cells; assay type: cell-based, mouse; conditions: melatonin 5 µM
Description: as §1, §2

[3] = system: AANAT-KO primary cerebrocortical neurons (PCNs); experiment: Immunoblot of cGAS, STING, IRF3, caspase-1 in PCNs; assay type: cell-based, mouse; conditions: AANAT-KO PCN, DIV21, melatonin 5 µM
Description: as §1, with “melatonin.” for “melatonin. STHdh^Q7/Q7 (Q7) STHdh^Q111/Q111 (Q111) cells were grown in MEM culture medium with 10% FBS. Differentiation of Q7 and Q111 cells was induced by exposing cells to 10 ng/mL α-FGF, 250 µM 3-isobutyl-1-methylxanthine (IBMX), 200 nM phorbol 12-myristate 13-acetate (TPA), 50 µM forskolin and 10 µM dopamine for 2 days.”
(§3) Samples (isolated mitochondria or whole-cell lysates) were cleared by centrifugation at 20,000 x g, equal amounts of protein were separated on Novex 4-12% gradient polyacrylamide gels (Invitrogen), and proteins transferred overnight onto 0.45 µm polyvinylidene difluoride (PVDF) membranes. The membranes were then incubated with the indicated primary antibodies overnight at 4° C. followed by incubation with secondary antibodies (Li-Cor) for 1 hour at room temperature, which were detected using the Odyssey CLx Infrared Imaging System (Li-Cor). Band intensities were quantified using Image Studio (Li-Cor).

[4] = system: AANAT-KO differentiated N2a cells; experiment: Immunoblot of inflammatory, caspase and synaptic markers in differentiated N2a cells; assay type: cell-based, mouse; conditions: melatonin 5 µM
Description: (§4) N2a cells were obtained from ATCC and grown in DMEM/F12 medium with 10% FBS. AANAT-KO N2a cells were generated as described elsewhere (see, e.g., Suofu et al., PNAS 114:E7997-E8006 (2017)). N2a cells were differentiated by exposing them to 10 µM retinoic acid (RA) with 2% fetal bovine serum (FBS) for 8 days. Every alternate day, the culture medium of differentiating N2a cells was replaced with fresh medium containing 10 µM of RA. N2a cells were treated with 5 µM melatonin during differentiation to evaluate the effect of melatonin in WT and AANAT-KO N2a differentiated neurons. Fresh melatonin was added with RA every alternate day for 8 days. All experiments were performed in 8-day-differentiated neurons with or without melatonin. STHdh^Q7/Q7 (Q7) STHdh^Q111/Q111 (Q111) cells were grown in MEM culture medium with 10% FBS. Differentiation of Q7 and Q111 cells was induced by exposing cells to 10 ng/mL α-FGF, 250 µM 3-isobutyl-1-methylxanthine (IBMX), 200 nM phorbol 12-myristate 13-acetate (TPA), 50 µM forskolin and 10 µM dopamine for 2 days. AANAT-KO and littermate WT primary cerebro-cortical neuron (PCN) cultures were prepared from embryonic day (E) 15.5 embryos, as described elsewhere (see, e.g., Yano et al., Nature neuroscience 17:822 (2014)).
as §3

[5] = system: AANAT-KO differentiated N2a cells; experiment: 8-OHDG immunofluorescence (mtDNA oxidative damage) in differentiated N2a cells; assay type: cell-based, mouse; conditions: melatonin 5 µM
Description: as §4, with “(2014)). […]” for “(2014)).”

R6/2 mice = experiment: Melatonin injection in R6/2 mouse model of HD: cytosolic mtDNA, cGAS/STING/IRF3, cytokines; assay type: in vivo; conditions: melatonin 30 mg/kg injected daily from 6 to 9 weeks of age
Description: Since melatonin is protective in R6/2 mice and melatonin is deficient in humans with HD, it was evaluated whether exogenous melatonin reduces mtDNA release and consequent inflammation. Six-week old R6/2 mice were injected with melatonin daily for 3 weeks. Melatonin inhibited mtDNA release and ameliorated cGAS/STING/IRF3 upregulation in cortex and striatum in 9-week R6/2 mice (FIGS. 12D and E, and FIG. 13A).
R6/2 mice, which carry the promoter sequence and exon 1 of a mutant human HTT gene with approximately 150 CAG repeats, were obtained from JAX (Bar Harbor, ME). A colony was maintained by breeding R6/2 males with B6CBAF1 females (JAX). CAG repeat length was determined for every mouse in the colony and mice with 150 +/-10 CAG repeats were used. PCR genotyping was performed. Three, six and Nine week-old R6/2 mice were used in the experiments.
as §3
Total RNA was isolated using the RNeasy Plus kit (Qiagen) and quantified using a ND-1000 spectrophotometer. cDNA was prepared using 1000 ng total RNA by a reverse transcription PCR (RT-PCR) using a high capacity cDNA reverse transcription kit (Applied Biosystems). qPCR was performed on cDNA using SYBR Green chemistry. qPCR was performed on a Biorad CFX touch PCR using Applied Biosystems PowerUp SYBR green master mix. Fold changes in expression were calculated by the ΔΔCt method using mouse β-Actin as an endogenous control for mRNA expression. All fold changes were expressed normalized to the untreated control. […]

[6] = system: AANAT-KO primary cerebrocortical neurons (PCNs); experiment: Cytokine ELISA in culture medium of PCNs; assay type: cell-based, mouse; conditions: AANAT-KO PCN, DIV21, melatonin 5 µM
Description: as §4

[7] = system: AANAT-KO differentiated N2a cells; experiment: ROS (Mitosox) and MMP (JC-1/TMRM) in differentiated N2a cells; assay type: cell-based, mouse; conditions: melatonin 5 µM
Description: as §1, with “FBS.” for “FBS. Differentiation of Q7 and Q111 cells was induced by exposing cells to 10 ng/mL α-FGF, 250 µM 3-isobutyl-1-methylxanthine (IBMX), 200 nM phorbol 12-myristate 13-acetate (TPA), 50 µM forskolin and 10 µM dopamine for 2 days.”
(§5) ROS accumulation in cells was estimated by either DCFDA for total ROS or Mitosox for mitochondrial ROS. Cells were incubated in 20 µM DCFDA for 45 minutes or 5 µM Mitosox for 15 minutes at 37° C. and fluorescence was measured using plate reader or flowcytometry. […] Cells were incubated in 2 µg/mL JC-1 or 25 nM TMRM for 30 minutes at 37° C. and fluorescence were measured using plate reader or flowcytrometry. […]

[8] = system: AANAT-KO primary cerebrocortical neurons (PCNs); experiment: MMP (TMRM) and mitochondrial ROS (Mitosox) in PCNs; assay type: cell-based, mouse; conditions: AANAT-KO PCN, DIV21, melatonin 5 µM in culture medium
Description: as §1, with “FBS.” for “FBS. Differentiation of Q7 and Q111 cells was induced by exposing cells to 10 ng/mL α-FGF, 250 µM 3-isobutyl-1-methylxanthine (IBMX), 200 nM phorbol 12-myristate 13-acetate (TPA), 50 µM forskolin and 10 µM dopamine for 2 days.”
as §5

[9] = system: AANAT-KO differentiated N2a cells; experiment: Cytokine ELISA in culture medium of differentiated N2a cells; assay type: cell-based, mouse; conditions: melatonin 5 µM
Description: as §4

[10] = system: AANAT-KO differentiated N2a cells; experiment: Neurite length and number by βIII-tubulin staining; assay type: cell-based, mouse; conditions: melatonin 5 µM
Description: as §4, with “(2014)). […]” for “(2014)).”

[11] = system: mitochondria of AANAT-KO differentiated N2a cells; experiment: Mitochondrial in vitro protein import assay (pOTC/mOTC); assay type: cell-based, mouse; conditions: melatonin
Description: as §1, with “FBS.” for “FBS. Differentiation of Q7 and Q111 cells was induced by exposing cells to 10 ng/mL α-FGF, 250 µM 3-isobutyl-1-methylxanthine (IBMX), 200 nM phorbol 12-myristate 13-acetate (TPA), 50 µM forskolin and 10 µM dopamine for 2 days.”
Ornithine transcarbamylase (OTC) precursor cDNA in pGEM-3Zf(+)-pOTC plasmid was transcribed and translated in vitro using the TNT Coupled Reticulocyte Lysate System (Promega) in the presence of [^35S] methionine (PerkinElmer). […] Mature OTC, which represents the cleaved protein after translocation into the mitochondrial matrix, was quantified by ImageJ (NIH). […]

[12] = system: Q7 and Q111 differentiated neurons; experiment: Immunoblot of cGAS, IRF3, STING in differentiated Q7 and Q111 neurons; assay type: cell-based, mice; conditions: differentiated Q111 neurons transfected with DNase 1, LDH control
Description: as §1, with “melatonin.” for “melatonin. STHdh^Q7/Q7 (Q7) STHdh^Q111/Q111 (Q111) cells were grown in MEM culture medium with 10% FBS. Differentiation of Q7 and Q111 cells was induced by exposing cells to 10 ng/mL α-FGF, 250 µM 3-isobutyl-1-methylxanthine (IBMX), 200 nM phorbol 12-myristate 13-acetate (TPA), 50 µM forskolin and 10 µM dopamine for 2 days.”
as §3, with “Studio (Li-Cor). […]” for “Studio (Li-Cor).”

Q111 cells = experiment: ROS (Mitosox) and MMP (TMRM) in differentiated Q7 and Q111 neurons; assay type: cell-based, mice; conditions: Q111 cells transfected with DNase 1, 2 µg/mL, LDH control
Description: as §1, with “FBS.” for “FBS. Differentiation of Q7 and Q111 cells was induced by exposing cells to 10 ng/mL α-FGF, 250 µM 3-isobutyl-1-methylxanthine (IBMX), 200 nM phorbol 12-myristate 13-acetate (TPA), 50 µM forskolin and 10 µM dopamine for 2 days.”
as §5

[13] = system: Q7 and Q111 differentiated neurons; experiment: Cytokine ELISA and mRNA qPCR in differentiated Q7 and Q111 neurons; assay type: cell-based, mice; conditions: Q111 differentiated neurons transfected with DNase 1, LDH control
Description: as §1, with “FBS.” for “FBS. Differentiation of Q7 and Q111 cells was induced by exposing cells to 10 ng/mL α-FGF, 250 µM 3-isobutyl-1-methylxanthine (IBMX), 200 nM phorbol 12-myristate 13-acetate (TPA), 50 µM forskolin and 10 µM dopamine for 2 days.”
Total RNA was isolated using the RNeasy Plus kit (Qiagen) and quantified using a ND-1000 spectrophotometer. cDNA was prepared using 1000 ng total RNA by a reverse transcription PCR (RT-PCR) using a high capacity cDNA reverse transcription kit (Applied Biosystems). qPCR was performed on cDNA using SYBR Green chemistry. qPCR was performed on a Biorad CFX touch PCR using Applied Biosystems PowerUp SYBR green master mix. Fold changes in expression were calculated by the ΔΔCt method using mouse β-Actin as an endogenous control for mRNA expression. […]

COc1ccc2[nH]cc(CCNC(C)=O)c2c1 [melatonin, Melatonin]
cytosolic mtDNA (mt-CO1, mt-Dloop1, mt-Dloop3) [1]: inhibited
mtDNA release (cytosolic mtDNA) [2]: prevented
cGAS/STING/IRF3 protein levels [3]: inhibited
caspase-1 [3]: inhibited
caspase-3 activation [4]: inhibited
expression of PSD95 (post-synaptic marker) [4]: increased
expression of synaptophysin (pre-synaptic marker) [4]: increased
inflammatory signaling pathways (Nf-kβ phosphorylation, caspase-1 cleavage, cGAS/STING/IRF3 levels) [4]: inhibited
mtDNA damage (8-OHDG) [5]: mitigated
expression of pro-inflammatory cytokines in brain (R6/2 mice): reduced
cGAS/STING/IRF3 upregulation (R6/2 mice; cortex and striatum): ameliorated
mtDNA release (cytosolic mtDNA) (R6/2 mice; cortex and striatum): inhibited
proinflammatory cytokines secretion [6]: inhibited
MMP (JC-1 fluorescence) [7]: mitigated
ROS (Mitosox fluorescence) [7]: mitigated
MMP (TMRM fluorescence) [8]: restored
mitochondrial ROS (Mitosox) [8]: restored
pro-inflammatory cytokines secretion [9]: inhibited
average neurite length [10]: rescued
average neurite number [10]: rescued
mitochondrial protein import [11]: mitigated

B1: DNAse1: DNAse1 protein transfected to degrade cytosolic DNA (protein, UniProt P24855 23-282, looked up)
Deoxyribonuclease-1: LKIAAFNIQTFGETKMSNATLVSYIVQILSRYDIALVQEVRDSHLTAVGKLLDNLNQDAPDTYHYVVSEPLGRNSYKERYLFVYRPDQVSAVDSYYYDDGCEPCGNDTFNREPAIVRFFSRFTEVREFAIVPLHAAPGDAVAEIDALYDVYLDVQEKWGLEDVMLMGDFNAGCSYVRPSQWSSIRLWTSPTFQWLIPDSADTTATPTHCAYDRIVVAGMLLRGAVVPDSALPFNFQAAYGLSDQLAQAISDHYPVEVMLK
cGAS/STING/IRF3 levels [12]: inhibited
elevated ROS (Mitosox) (Q111 cells): did not alter
reduced MMP (TMRM) (Q111 cells): did not alter
proinflammatory cytokine secretion [13]: inhibited
